Measurements: patent publication US20210122739A1, “NOVEL SULFONAMIDE CARBOXAMIDE COMPOUNDS” (Inflazome Limited, priority 2017, published 2021)

Columns and labels:
NLRP3 [1] = molecular target: T1, NLRP3 (Homo sapiens, UniProt Q96P20); experiment: Human whole blood IL1β release assay; type: cell-based; set-up: Plate out 80 μl of whole blood containing 1 μg/ml of LPS; from tissue; host or cells: human whole blood from healthy donors, LPS-primed, nigericin-stimulated; conditions: 1 μg/ml LPS, nigericin 10 μM, IL-1β by AlphaLisa, read-out: HWB IC50
T1 sequence (Q96P20 whole entry): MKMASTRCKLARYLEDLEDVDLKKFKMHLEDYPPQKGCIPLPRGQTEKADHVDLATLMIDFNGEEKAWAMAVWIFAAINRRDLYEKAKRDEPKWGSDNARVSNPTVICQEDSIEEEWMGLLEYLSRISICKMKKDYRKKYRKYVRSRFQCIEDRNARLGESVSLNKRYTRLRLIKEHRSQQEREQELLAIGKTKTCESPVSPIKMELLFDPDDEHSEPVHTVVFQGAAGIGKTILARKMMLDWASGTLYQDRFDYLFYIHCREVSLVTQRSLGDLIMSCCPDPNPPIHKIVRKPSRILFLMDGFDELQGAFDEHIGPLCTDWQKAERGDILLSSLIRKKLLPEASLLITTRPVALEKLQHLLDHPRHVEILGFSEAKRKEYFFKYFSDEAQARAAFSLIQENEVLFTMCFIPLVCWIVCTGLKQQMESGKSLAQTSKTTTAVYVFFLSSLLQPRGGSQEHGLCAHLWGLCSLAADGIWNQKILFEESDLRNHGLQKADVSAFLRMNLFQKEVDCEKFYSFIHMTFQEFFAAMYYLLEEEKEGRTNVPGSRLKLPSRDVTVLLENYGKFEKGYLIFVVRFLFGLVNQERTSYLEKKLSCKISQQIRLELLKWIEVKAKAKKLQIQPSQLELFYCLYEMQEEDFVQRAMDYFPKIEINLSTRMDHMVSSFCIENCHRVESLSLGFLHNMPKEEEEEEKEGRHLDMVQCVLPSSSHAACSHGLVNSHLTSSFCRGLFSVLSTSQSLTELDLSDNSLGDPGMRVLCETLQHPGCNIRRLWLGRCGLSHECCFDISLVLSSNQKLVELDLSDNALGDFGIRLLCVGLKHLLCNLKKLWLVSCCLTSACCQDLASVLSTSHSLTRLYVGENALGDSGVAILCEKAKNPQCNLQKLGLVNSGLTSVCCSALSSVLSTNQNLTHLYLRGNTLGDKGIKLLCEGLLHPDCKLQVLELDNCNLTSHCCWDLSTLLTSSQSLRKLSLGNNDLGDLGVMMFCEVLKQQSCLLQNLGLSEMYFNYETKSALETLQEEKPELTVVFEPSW
Procedure: For systemic delivery, the ability to inhibit NLRP3 when the compounds are present within the bloodstream is of great importance. For this reason, the NLRP3 inhibitory activity of a number of compounds in human whole blood was investigated in accordance with the following protocol.
Human whole blood in Li-heparin tubes was obtained from healthy donors from a volunteer donor panel. • 1. Plate out 80 μl of whole blood containing 1 μg/ml of LPS in 96-well, clear bottom cell culture plate (Corning #3585) • 2. Add 10 μl compound (8 points half-log dilution with 10 μM top dose) or vehicle (DMSO 0.1% FAC) to the appropriate wells • 3. Incubate for 3 hrs at 37° C., 5% CO2 • 4. Add 10 μl Nigericin (Sigma #N7143) (10 μM FAC) to all wells • 5. Incubate for 1 hr at 37° C., 5% CO2 • 6. At the end of the incubation period, spin plates at 300×g for 5 mins to pellet cells and remove 20 μl of supernatant and add to 96-well v-bottom plates for IL-1β analysis (note: these plates containing the supernatants can be stored at −80° C. to be analysed at a later date) • 7. IL-1β was measured according to the manufacturer protocol (Perkin Elmer-AlphaLisa IL-1 Kit AL220F-5000) • 8. IC50 data is fitted to anon-linear regression equation (log inhibitor vs response-variable slope 4-parameters)

NLRP3 [2] = molecular target: T1, NLRP3; experiment: THP-1 cells pyroptosis assay; type: cell-based; set-up: Seed THP-1 cells (25,000 cells/well) containing 1.0 μg/ml LPS; host or cells: THP-1 cells, LPS-primed, nigericin-stimulated; conditions: 1.0 μg/ml LPS, nigericin 5 μM, resazurin readout
Excerpt: It is well established that the activation of NLRP3 leads to cell pyroptosis and this feature plays an important part in the manifestation of clinical disease (Yan-gang Liu et al., Cell Death & Disease, 2017, 8(2), e2579; Alexander Wree et al., Hepatology, 2014, 59(3), 898-910; Alex Baldwin et al., Journal of Medicinal Chemistry, 2016, 59(5), 1691-1710; Ema Ozaki et al., Journal of Inflammation Research, 2015, 8, 15-27; Zhen Xie & Gang Zhao, Neuroimmunology Neuroinflammation, 2014, 1(2), 60-65; Mattia Cocco et al., Journal of Medicinal Chemistry, 2014, 57(24), 10366-10382; T. Satoh et al., Cell Death & Disease, 2013, 4, e644). Therefore, it is anticipated that inhibitors of NLRP3 will block pyroptosis, as well as the release of pro-inflammatory cytokines (e.g. IL-1β) from the cell.
THP-1 cells (ATCC #TIB-202) were grown in RPMI containing L-glutamine (Gibco #11835) supplemented with 1 mM sodium pyruvate (Sigma #S8636) and penicillin (100 units/ml)/streptomycin (0.1 mg/ml) (Sigma #P4333) in 10% Fetal Bovine Serum (FBS) (Sigma #F0804). The cells were routinely passaged and grown to confluency (˜10^6 cells/ml). On the day of the experiment, THP-1 cells were harvested and resuspended into RPMI medium (without FBS). The cells were then counted and viability (>90%) checked by Trypan blue (Sigma #T8154). Appropriate dilutions were made to give a concentration of 625,000 cells/ml. To this diluted cell solution was added LPS (Sigma #L4524) to give a 1 μg/ml Final Assay Concentration (FAC). 40 μl of the final preparation was aliquoted into each well of a 96-well plate. The plate thus prepared was used for compound screening.
The following method step-by-step assay was followed for compound screening. • 1. Seed THP-1 cells (25,000 cells/well) containing 1.0 μg/ml LPS in 40 μl of RPMI medium (without FBS) in 96-well, black walled, clear bottom cell culture plates coated with poly-D-lysine (VWR #734-0317) • 2. Add […] compound (8 points half-log dilution, with 10 μM top dose) or vehicle (DMSO 0.1% FAC) to the appropriate wells • 3. Incubate for 3 hrs at 37° C. in 5% CO2 • 4. Add 5 μl nigericin (Sigma #N7143) (FAC 5 μM) to all wells • 5. Incubate for 1 hr at 37° C. and 5% CO2 • 6. At the end of the incubation period, spin plates at 300×g for 3 mins and remove supernatant • 7. Then add 50 μl of resazurin (Sigma #R7017) (FAC 100 μM resazurin in RPMI medium without FBS) and incubate plates for a further 1-2 hrs at 37° C. and 5% CO2 • 8. Plates were read in an Envision reader at Ex 560 nm and Em 590 nm • 9. IC50 data is fitted to a non-linear regression equation (log inhibitor vs response-variable slope 4-parameters)

CN(C(=O)c1cc(S(=O)(=O)NC(=O)Nc2c3c(cc4c2CCC4)CCC3)nn1C)C1CC1 [Example 52, N-Cyclopropyl-3-(N-((1,2,3,5,6,7-hexahydro-s-indacen-4-yl)carbamoyl)sulfamoyl)-N,1-dimethyl-1H-pyrazole-5-carboxamide]
IC50 (NLRP3 [1]): 0.4 to 0.8 µM
IC50 (NLRP3 [2]): 0.04 to 0.16 µM

COc1cc(-c2ccc3c(c2NC(=O)NS(=O)(=O)c2ccn(C(C)(C)C(=O)N(C)C)n2)CCC3)ccn1 [Example 84]
IC50 (NLRP3 [1]): < 0.4 µM
IC50 (NLRP3 [2]): < 0.04 µM

CC(C)c1cc(F)cc(-c2cncnc2)c1NC(=O)NS(=O)(=O)c1cc(C(=O)N(C)C)n(C)n1 [Example 42, 3-(N-((4-Fluoro-2-isopropyl-6-(pyrimidin-5-yl)phenyl)carbamoyl)sulfamoyl)-N,N,1-trimethyl-1H-pyrazole-5-carboxamide]
IC50 (NLRP3 [1]): < 0.4 µM
IC50 (NLRP3 [2]): 0.16 to 0.64 µM

COc1cc(-c2ccc3c(c2NC(=O)NS(=O)(=O)c2cc(C(=O)N(C)C)n(C)n2)CCC3)ccn1 [Example 82, 3-(N-((5-(2-Methoxypyridin-4-yl)-2,3-dihydro-1H-inden-4-yl)carbamoyl)sulfamoyl)-N,N,1-trimethyl-1H-pyrazole-5-carboxamide]
IC50 (NLRP3 [1]): < 0.4 µM
IC50 (NLRP3 [2]): < 0.04 µM

Cn1nc(S(=O)(=O)NC(=O)Nc2c3c(cc4c2CCC4)CCC3)cc1C(=O)N1CCC1 [Example 54, 5-(Azetidine-1-carbonyl)-N-((1,2,3,5,6,7-hexahydro-s-indacen-4-yl)carbamoyl)-1-methyl-1H-pyrazole-3-sulfonamide]
IC50 (NLRP3 [1]): 1.6 to 3.2 µM
IC50 (NLRP3 [2]): 0.04 to 0.16 µM

CC(C)N(C)C(=O)c1cc(S(=O)(=O)NC(=O)Nc2c3c(cc4c2CCC4)CCC3)nn1C [Example 64, 3-(N-((1,2,3,5,6,7-Hexahydro-s-indacen-4-yl)carbamoyl)sulfamoyl)-N-isopropyl-N,1-dimethyl-1H-pyrazole-5-carboxamide]
IC50 (NLRP3 [1]): 1.6 to 3.2 µM
IC50 (NLRP3 [2]): 0.04 to 0.16 µM

CN(CC#N)C(=O)c1cc(S(=O)(=O)NC(=O)Nc2c3c(cc4c2CCC4)CCC3)nn1C [Example 53, N-(Cyanomethyl)-3-(N-((1,2,3,5,6,7-hexahydro-s-indacen-4-yl)carbamoyl)sulfamoyl)-N,1-dimethyl-1H-pyrazole-5-carboxamide]
IC50 (NLRP3 [1]): 0.8 to 1.6 µM
IC50 (NLRP3 [2]): 0.16 to 0.64 µM

CC(C)c1cc(F)cc(-c2cccnc2)c1NC(=O)NS(=O)(=O)c1cc(C(=O)N(C)C)n(C)n1 [Example 41, 3-(N-((4-Fluoro-2-isopropyl-6-(pyridin-3-yl)phenyl)carbamoyl)sulfamoyl)-N,N,1-trimethyl-1H-pyrazole-5-carboxamide]
IC50 (NLRP3 [1]): < 0.4 µM

CC(C)c1ccc(C(C)C)c(NC(=O)NS(=O)(=O)c2cc(C(=O)N(C)C)n(C)n2)c1 [Example 44, 3-(N-((2,5-Diisopropylphenyl)carbamoyl)sulfamoyl)-N,N,1-trimethyl-1H-pyrazole-5-carboxamide]
IC50 (NLRP3 [1]): 3.2 to 10 µM
IC50 (NLRP3 [2]): 0.16 to 0.64 µM

CCN(C)C(=O)c1cc(S(=O)(=O)NC(=O)Nc2c(C(C)C)cccc2C(C)C)nn1C [Example 56, 3-(N-((2,6-Diisopropylphenyl)carbamoyl)sulfamoyl)-N-ethyl-N,1-dimethyl-1H-pyrazole-5-carboxamide]
IC50 (NLRP3 [1]): 1.6 to 3.2 µM
IC50 (NLRP3 [2]): 0.64 to 2.56 µM

Cn1nc(S(=O)(=O)NC(=O)Nc2c3c(cc4c2CCC4)CCC3)cc1C(=O)N1CCC(O)CC1 [Example 24, N-((1,2,3,5,6,7-Hexahydro-s-indacen-4-yl)carbamoyl)-5-(4-hydroxypiperidine-1-carbonyl)-1-methyl-1H-pyrazole-3-sulfonamide]
IC50 (NLRP3 [2]): 2.56 to 10 µM

CC(C)c1cccc(C(C)C)c1NC(=O)NS(=O)(=O)c1cc(C(=O)N(C)CCO)n(C)n1 [Example 75, 3-(N-((2,6-Diisopropylphenyl)carbamoyl)sulfamoyl)-N-(2-hydroxyethyl)-N,1-dimethyl-1H-pyrazole-5-carboxamide]
IC50 (NLRP3 [2]): 0.64 to 2.56 µM

CC(C)c1cc(F)cc(C2CCOCC2)c1NC(=O)NS(=O)(=O)c1cc(C(=O)N(C)C)n(C)n1 [Example 33, 3-(N-((4-Fluoro-2-isopropyl-6-(tetrahydro-2H-pyran-4-yl)phenyl)carbamoyl)sulfamoyl)-N,N,1-trimethyl-1H-pyrazole-5-carboxamide]
IC50 (NLRP3 [1]): 0.4 to 0.8 µM

CN(C)CCCN(C)C(=O)c1cc(S(=O)(=O)NC(=O)Nc2c3c(cc4c2CCC4)CCC3)nn1C [Example 6, N-(3-(Dimethylamino)propyl)-3-(N-((1,2,3,5,6,7-hexahydro-s-indacen-4-yl)carbamoyl)sulfamoyl)-N,1-dimethyl-1H-pyrazole-5-carboxamide]
IC50 (NLRP3 [2]): 2.56 to 10 µM

Cn1nc(S(=O)(=O)NC(=O)Nc2c3c(cc4c2CCC4)CCC3)cc1C(=O)NCCO [Example 76, 3-(N-((1,2,3,5,6,7-Hexahydro-s-indacen-4-yl)carbamoyl)sulfamoyl)-N-(2-hydroxyethyl)-1-methyl-1H-pyrazole-5-carboxamide]
IC50 (NLRP3 [2]): 2.56 to 10 µM

CC(C)NC(=O)c1cc(S(=O)(=O)NC(=O)Nc2c3c(cc4c2CCC4)CCC3)nn1C [Example 46, 3-(N-((1,2,3,5,6,7-Hexahydro-s-indacen-4-yl)carbamoyl)sulfamoyl)-N-isopropyl-1-methyl-1H-pyrazole-5-carboxamide]
IC50 (NLRP3 [2]): 2.56 to 10 µM

CCN(CC)C(=O)c1cc(S(=O)(=O)NC(=O)Nc2c(C(C)C)cc(F)cc2C(C)C)nn1C [Example 48, N,N-Diethyl-3-(N-((4-fluoro-2,6-diisopropylphenyl)carbamoyl)sulfamoyl)-1-methyl-1H-pyrazole-5-carboxamide]
IC50 (NLRP3 [2]): 0.16 to 0.64 µM

CC(C)c1cc(F)cc(C(C)C)c1NC(=O)NS(=O)(=O)c1cc(C(=O)N2CCC2)n(C(C)C)n1 [Example 30, 5-(Azetidine-1-carbonyl)-N-((4-fluoro-2,6-diisopropylphenyl)carbamoyl)-1-isopropyl-1H-pyrazole-3-sulfonamide]
IC50 (NLRP3 [2]): 0.16 to 0.64 µM

COC1CCN(C(=O)c2cc(S(=O)(=O)NC(=O)Nc3c4c(cc5c3CCC5)CCC4)nn2C)C1 (stereo not drawn) [Example 25, N-((1,2,3,5,6,7-Hexahydro-s-indacen-4-yl)carbamoyl)-5-(3-methoxypyrrolidine-1-carbonyl)-1-methyl-1H-pyrazole-3-sulfonamide]
IC50 (NLRP3 [2]): 2.56 to 10 µM

CC(=O)N(C)CCN(C)C(=O)c1cc(S(=O)(=O)NC(=O)Nc2c3c(cc4c2CCC4)CCC3)nn1C [Example 12, 3-(N-((1,2,3,5,6,7-Hexahydro-s-indacen-4-yl)carbamoyl)sulfamoyl)-N,1-dimethyl-N-(2-(N-methylacetamido)ethyl)-1H-pyrazole-5-carboxamide]
IC50 (NLRP3 [2]): 2.56 to 10 µM

CN(C(=O)c1cc(S(=O)(=O)NC(=O)Nc2c3c(cc4c2CCC4)CCC3)nn1C)C1COC1 [Example 17, 3-(N-((1,2,3,5,6,7-Hexahydro-s-indacen-4-yl)carbamoyl)sulfamoyl)-N,1-dimethyl-N-(oxetan-3-yl)-1H-pyrazole-5-carboxamide]
IC50 (NLRP3 [2]): 0.64 to 2.56 µM
